Data: US11739098B2 (BRISTOL-MYERS SQUIBB COMPANY, priority 2017, dated 2023)

How the values were obtained:
Type in all cases: cell-based
human TLR8 = biological target: T1, human TLR8 (Homo sapiens, UniProt Q9NR97); assay: TLR8 inhibition reporter assay (HEK-Blue cells, SEAP reporter, R848 stimulation); settings: HEK-Blue cells overexpressing human TLR8, SEAP reporter, R848 15.9 μM
T1 construct: host or cells: HEK-Blue cells (HEK293-derived reporter line)
T1 sequence (Q9NR97 27-1041): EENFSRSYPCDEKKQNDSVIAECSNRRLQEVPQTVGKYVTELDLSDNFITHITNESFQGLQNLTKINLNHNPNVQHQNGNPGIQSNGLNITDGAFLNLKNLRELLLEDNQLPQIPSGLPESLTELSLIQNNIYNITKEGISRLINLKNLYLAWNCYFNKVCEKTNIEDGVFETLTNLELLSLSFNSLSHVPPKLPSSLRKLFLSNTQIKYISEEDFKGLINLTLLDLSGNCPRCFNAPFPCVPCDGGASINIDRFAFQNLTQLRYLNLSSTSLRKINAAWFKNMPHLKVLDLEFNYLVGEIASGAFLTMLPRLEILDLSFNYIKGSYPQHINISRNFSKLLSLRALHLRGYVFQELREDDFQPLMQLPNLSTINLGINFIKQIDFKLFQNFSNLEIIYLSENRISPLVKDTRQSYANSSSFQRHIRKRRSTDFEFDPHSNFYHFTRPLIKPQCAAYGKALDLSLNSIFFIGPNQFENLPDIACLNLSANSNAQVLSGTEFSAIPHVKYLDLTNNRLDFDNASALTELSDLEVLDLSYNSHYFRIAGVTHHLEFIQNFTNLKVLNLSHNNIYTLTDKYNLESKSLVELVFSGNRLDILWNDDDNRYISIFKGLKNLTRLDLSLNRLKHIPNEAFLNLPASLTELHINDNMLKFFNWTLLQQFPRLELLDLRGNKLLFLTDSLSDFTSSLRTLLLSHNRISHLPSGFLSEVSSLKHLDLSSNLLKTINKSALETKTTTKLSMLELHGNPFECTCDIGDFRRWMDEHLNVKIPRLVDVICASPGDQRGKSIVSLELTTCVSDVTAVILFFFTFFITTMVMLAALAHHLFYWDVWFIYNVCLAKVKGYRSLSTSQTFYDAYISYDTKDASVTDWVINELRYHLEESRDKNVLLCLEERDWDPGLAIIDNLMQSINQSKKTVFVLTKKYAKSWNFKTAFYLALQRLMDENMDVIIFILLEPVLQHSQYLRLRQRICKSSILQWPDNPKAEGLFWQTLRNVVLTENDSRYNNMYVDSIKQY
Method in brief: (§1)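 After 22 h at 37 °C, SEAP secretion was measured from human TLR7-, TLR8- or TLR9-expressing HEK-Blue reporter cells given compound (0.05 nM–50 μM) 30 min before agonist: 7.5 μM gardiquimod, 15.9 μM R848 or 5 nM ODN2006 respectively. Percent inhibition referenced to agonist-plus-DMSO and known-inhibitor wells.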

human TLR7 = biological target: T2, human TLR7 (Homo sapiens, UniProt Q9NYK1); assay: TLR7 inhibition reporter assay (HEK-Blue cells, SEAP reporter, gardiquimod stimulation); settings: HEK-Blue cells overexpressing human TLR7, SEAP reporter, gardiquimod 7.5 μM
T2 construct: host or cells: HEK-Blue cells (HEK293-derived reporter line)
T2 sequence (Q9NYK1 27-1049): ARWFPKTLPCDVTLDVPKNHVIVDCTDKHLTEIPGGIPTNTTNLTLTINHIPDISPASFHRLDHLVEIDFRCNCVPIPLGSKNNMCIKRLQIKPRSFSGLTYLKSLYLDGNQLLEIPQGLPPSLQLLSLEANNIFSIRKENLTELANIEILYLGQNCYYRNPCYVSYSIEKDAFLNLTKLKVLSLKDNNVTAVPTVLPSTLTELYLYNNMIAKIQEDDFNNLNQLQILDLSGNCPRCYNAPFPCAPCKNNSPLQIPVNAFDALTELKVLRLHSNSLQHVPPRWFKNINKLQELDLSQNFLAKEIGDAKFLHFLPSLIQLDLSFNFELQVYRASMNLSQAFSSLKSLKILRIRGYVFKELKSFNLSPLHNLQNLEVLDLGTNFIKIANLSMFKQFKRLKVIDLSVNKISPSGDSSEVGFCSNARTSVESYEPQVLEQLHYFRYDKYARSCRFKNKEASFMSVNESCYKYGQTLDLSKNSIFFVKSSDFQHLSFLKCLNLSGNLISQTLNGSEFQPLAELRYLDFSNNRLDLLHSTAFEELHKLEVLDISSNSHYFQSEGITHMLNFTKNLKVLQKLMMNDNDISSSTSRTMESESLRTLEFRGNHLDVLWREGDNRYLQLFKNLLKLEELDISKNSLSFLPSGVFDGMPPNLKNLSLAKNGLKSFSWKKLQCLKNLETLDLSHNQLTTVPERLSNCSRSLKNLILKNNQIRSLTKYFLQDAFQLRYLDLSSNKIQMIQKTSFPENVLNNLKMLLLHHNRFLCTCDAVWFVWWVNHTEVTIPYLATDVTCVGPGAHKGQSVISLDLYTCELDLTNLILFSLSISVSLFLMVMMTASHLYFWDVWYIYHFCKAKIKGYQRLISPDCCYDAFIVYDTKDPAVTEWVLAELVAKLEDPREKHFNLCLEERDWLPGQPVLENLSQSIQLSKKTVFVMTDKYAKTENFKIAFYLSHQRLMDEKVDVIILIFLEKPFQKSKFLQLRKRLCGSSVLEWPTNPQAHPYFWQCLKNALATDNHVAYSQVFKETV
Method in brief: as §1

human TLR9 = biological target: T3, human TLR9 (Homo sapiens, UniProt Q9NR96); assay: TLR9 inhibition reporter assay (HEK-Blue cells, SEAP reporter, ODN2006 stimulation); settings: HEK-Blue cells overexpressing human TLR9, SEAP reporter, ODN2006 5 nM
T3 construct: host or cells: HEK-Blue cells (HEK293-derived reporter line)
T3 sequence (Q9NR96 26-1032): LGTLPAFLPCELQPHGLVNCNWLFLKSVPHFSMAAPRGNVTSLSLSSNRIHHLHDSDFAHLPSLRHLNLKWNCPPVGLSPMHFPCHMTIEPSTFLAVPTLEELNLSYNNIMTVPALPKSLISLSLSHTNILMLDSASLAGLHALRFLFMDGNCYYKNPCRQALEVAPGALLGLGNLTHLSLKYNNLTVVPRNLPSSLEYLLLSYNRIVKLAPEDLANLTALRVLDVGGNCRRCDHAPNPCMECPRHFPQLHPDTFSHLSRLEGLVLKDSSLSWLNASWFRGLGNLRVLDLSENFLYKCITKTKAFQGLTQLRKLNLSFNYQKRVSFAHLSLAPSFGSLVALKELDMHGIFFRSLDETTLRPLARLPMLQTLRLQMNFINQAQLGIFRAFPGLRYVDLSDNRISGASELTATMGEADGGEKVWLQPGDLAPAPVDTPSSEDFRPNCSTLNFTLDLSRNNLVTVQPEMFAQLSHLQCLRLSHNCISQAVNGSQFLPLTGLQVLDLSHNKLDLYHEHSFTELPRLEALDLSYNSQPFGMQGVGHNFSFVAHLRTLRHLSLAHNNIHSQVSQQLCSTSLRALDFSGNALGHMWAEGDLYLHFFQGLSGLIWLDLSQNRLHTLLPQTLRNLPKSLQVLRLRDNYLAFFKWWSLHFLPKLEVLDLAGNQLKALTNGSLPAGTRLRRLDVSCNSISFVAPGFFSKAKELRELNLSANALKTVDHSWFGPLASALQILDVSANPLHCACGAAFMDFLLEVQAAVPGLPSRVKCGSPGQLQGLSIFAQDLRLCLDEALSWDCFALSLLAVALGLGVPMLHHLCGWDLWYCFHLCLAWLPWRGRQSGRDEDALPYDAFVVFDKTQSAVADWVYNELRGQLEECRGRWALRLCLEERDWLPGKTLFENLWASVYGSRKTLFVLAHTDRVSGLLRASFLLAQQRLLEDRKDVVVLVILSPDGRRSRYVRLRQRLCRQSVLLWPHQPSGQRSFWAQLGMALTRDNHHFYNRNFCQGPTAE
Method in brief: as §1

Compound | IC50 (human TLR8) [nM] | IC50 (human TLR7) [nM] | IC50 (human TLR9) [nM]
Cc1cc(-c2[nH]c3ccc(C4CCN(C(=O)CCN5CCC(F)CC5)CC4)cc3c2C(C)C)cn2nnnc12 [Example 633, 3-(4-fluoropiperidin-1-yl)-1-(4-(3-isopropyl-2-(8-methyltetrazolo[1,5-a]pyridin-6-yl)-1H-ndol-5-yl)piperidin-1-yl)propan-1-one] | < 100 | < 100 | 1000 to 50000
COc1cc(-c2[nH]c3ccc(C4CCN(CC#N)CC4)cc3c2C(C)C)cn2ccnc12 [Example 950, 2-(4-(3-isopropyl-2-(8-methoxyimidazo[1,2-a]pyridin-6-yl)-1H-indol-5-yl)piperidin-1-yl)acetonitrile] | < 100 | < 100 | 100 to 1000
Cc1cc(-c2[nH]c3ccc(C4CCN(CC(=O)N(C)C)CC4)cc3c2C(C)C)cn2nncc12 [Example 307, 2-(4-(3-isopropyl-2-(4-methyl-[1,2,3]triazolo [1,5-a]pyridin-6-yl)-1H-indol-5-yl)piperidin-1-yl)-N,N-dimethylacetamide] | 100 to 1000 | 100 to 1000 | 1000 to 50000
CC(C)c1c(-c2cn3cnnc3c(=O)n2C)[nH]c2ccc(C3CCNCC3)cc12 [Example 237, 6-(3-isopropyl-5-(piperidin-4-yl)-1H-indol-2-yl)-7-methyl-[1,2,4]triazolo[4,3-a]pyrazin-8(7H)-one] | > 3130 | > 3130 | 1000 to 50000
Cc1cc(-c2[nH]c3ccc(C4CCN(C(=O)CN(C)C)CC4)cc3c2C(C)C)cn2nnnc12 [Example 477, 2-(dimethylamino)-1-(4-(3-isopropyl-2-(8-methyltetrazolo[1,5-a]pyridin-6-yl)-1H-indol-5-yl)piperidin-1-yl)ethan-1-one] | < 100 | < 100 | 1000 to 50000
Cc1cn2cc(-c3[nH]c4ccc(C5CCN(C(=O)CN(C)C)CC5)cc4c3C(C)C)cc(C)c2n1 [Example 509, 2-(dimethylamino)-1-(4-(2-(2,8-dimethylimidazo[1,2-a]pyridin-6-yl)-3-isopropyl-1H-indol-5-yl)piperidin-1-yl)ethan-1-one] | < 100 | < 100 | 100 to 1000
CC(C)c1c(-c2c[nH]c3cnccc23)[nH]c2ccc(C3CCNCC3)cc12 [Example 15, 3-(3-isopropyl-5-(piperidin-4-yl)-1H-indol-2-yl)-1H-pyrrolo[2,3-c]pyridine] | 1000 to 50000 | 100 to 1000 | 100 to 1000
CNC(=O)CN1CCC(c2ccc3[nH]c(-c4cn5cc(C)nc5cc4C)c(C(C)C)c3c2)CC1 [Example 374, 2-(4-(2-(2,7-dimethylimidazo[1,2-a]pyridin-6-yl)-3-isopropyl-1H-indol-5-yl)piperidin-1-yl)-N-methylacetamide] | 100 to 1000 | < 100 | 100 to 1000
CNCC(=O)N1CCC(c2ccc3[nH]c(-c4cn5ccnc5c(C)c4C)c(C(C)C)c3c2)CC1 [Example 548, 1-(4-(2-(7,8-dimethylimidazo[1,2-a]pyridin-6-yl)-3-isopropyl-1H-indol-5-yl)piperidin-1-yl)-2-(methylamino)ethan-1-one] | 100 to 1000 | < 100 | 100 to 1000

Continued, values first:

IC50 (human TLR8) [nM] | IC50 (human TLR7) [nM] | IC50 (human TLR9) [nM] | Compound
< 100 | < 100 | 1000 to 50000 | CC(C)c1c(-c2ccc(C#N)c3ncccc23)[nH]c2ccc(C3CCN(CC(C)(C)O)CC3)cc12 [Example 766, 5-(5-(1-(2-hydroxy-2-methylpropyl)piperidin-4-yl)-3-isopropyl-1H-indol-2-yl)quinoline-8-carbonitrile]
< 100 | < 100 | 1000 to 50000 | Cc1cc(-c2[nH]c3ccc(C4CCN(CC(N)=O)CC4)cc3c2C(C)C)cc2cccnc12 [Example 436, 2-(4-(3-isopropyl-2-(8-methylquinolin-6-yl)-1H-indol-5-yl)piperidin-1-yl)acetamide]
> 3130 | > 3130 | 1000 to 50000 | CNC(=O)CN1CCC(c2ccc3[nH]c(-c4cc(CC(C)C)n5nc(C)cc5c4)c(C(C)C)c3c2)CC1 [Example 392, 2-(4-(2-(7-isobutyl-2-methylpyrazolo[1,5-a]pyridin-5-yl)-3-isopropyl-1H-indol-5-yl)piperidin-1-yl)-N-methylacetamide]
< 100 | < 100 | 1000 to 50000 | CC(C)c1c(-c2ccnc3[nH]ccc23)[nH]c2ccc(C3CCNCC3)cc12 [Example 1, 4-(3-isopropyl-5-(piperidin-4-yl)-1H-indol-2-yl)-1H-pyrrolo[2,3-b]pyridine]
> 3130 | > 50000 | 100 to 1000 | CNCCN1CCC(c2ccc3[nH]c(-c4cncc5ccccc45)c(C)c3c2)CC1 [Example 665, 2-(4-(2-(isoquinolin-4-yl)-3-methyl-1H-indol-5-yl)piperidin-1-yl)-N-methylethan-1-amine]
